Patent US20250206727A1, “HETEROCYCLIC SUBSTITUTED AROMATIC COMPOUND, PREPARATION METHOD THEREFOR, HERBICIDAL COMPOSITION AND APPLICATION” (QINGDAO KINGAGROOT CHEMICAL COMPOUND CO., LTD., priority 2022, published 2025)

Assays:
Assay in all cases: Post-emergence test on weeds (greenhouse, spray at 2-3 leaf stage)
Assay type in all cases: in vivo
Design in all cases: key: Level 10: completely dead; Level 9: growth control rate greater than or equal to 90% and less than 100%; Level 8: growth control rate greater than or equal to 80% and less than 90%; Level 7: growth control rate greater than or equal to 70% and less than 80%; Level 6: growth control rate greater than or equal to 60% and less than 70%; Level 5: growth control rate greater than or equal to 50% and less than 60%; Level 4: growth control rate greater than or equal to 40% and less than 50%; Level 3: growth control rate greater than or equal to 30% and less than 40%; Level 2: growth control rate greater than or equal to 20% and less than 30%; Level 1: growth control rate less than 20%; Level 0: no effect
Conditions in all cases: 60 g a.i./ha, 3 weeks after application
[1] = tested on: Echinochloa crus-galli
Method in brief: (§1)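 Pot-grown plants were spray-tower treated two weeks after sowing with compound in acetone/Tween 80 plus 1.5 L/ha methyl oleate EC, at rates from 500 to 7.5 g a.i./ha. Fresh-weight growth control was scored 0–10 after 3 weeks in the greenhouse, averaged over triplicates.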

[2] = tested on: Abutilon theophrasti
Method in brief: as §1

[3] = tested on: Digitaria sanguinalis
Method in brief: as §1

[4] = tested on: Amaranthus retroflexus
Method in brief: as §1

[5] = tested on: Setaria viridis
Method in brief: as §1

[6] = tested on: Veronica polita
Method in brief: as §1

CC1(C(=O)O)ON=C(c2cc(-c3ncc(C(F)(F)F)cc3Cl)c(F)cc2Cl)O1 (stereo not drawn) [Compound 1]
10: activity level (fresh weight growth control rate), Echinochloa crus-galli [1] | activity level (fresh weight growth control rate), Abutilon theophrasti [2] | activity level (fresh weight growth control rate), Digitaria sanguinalis [3] | activity level (fresh weight growth control rate), Amaranthus retroflexus [4] | activity level (fresh weight growth control rate), Setaria viridis [5] | activity level (fresh weight growth control rate), Veronica polita [6]

CCOC(=O)C1(C)ON=C(c2cc(-c3ncc(C(F)(F)F)cc3F)c(F)cc2Cl)O1 (stereo not drawn) [Compound 34]
10: activity level (fresh weight growth control rate), Echinochloa crus-galli [1] | activity level (fresh weight growth control rate), Abutilon theophrasti [2] | activity level (fresh weight growth control rate), Digitaria sanguinalis [3] | activity level (fresh weight growth control rate), Amaranthus retroflexus [4] | activity level (fresh weight growth control rate), Setaria viridis [5] | activity level (fresh weight growth control rate), Veronica polita [6]

CCC1(C(=O)OC)ON=C(c2cc(-c3ncc(C(F)(F)F)cc3F)c(F)cc2Cl)O1 (stereo not drawn) [Compound 19]
10: activity level (fresh weight growth control rate), Echinochloa crus-galli [1] | activity level (fresh weight growth control rate), Abutilon theophrasti [2] | activity level (fresh weight growth control rate), Digitaria sanguinalis [3] | activity level (fresh weight growth control rate), Amaranthus retroflexus [4] | activity level (fresh weight growth control rate), Setaria viridis [5] | activity level (fresh weight growth control rate), Veronica polita [6]

CCOC(=O)C1(C)ON=C(c2cc(-c3ncc(C(F)(F)F)cc3Cl)c(F)cc2C#N)O1 (stereo not drawn) [Compound 56]
10: activity level (fresh weight growth control rate), Echinochloa crus-galli [1] | activity level (fresh weight growth control rate), Abutilon theophrasti [2] | activity level (fresh weight growth control rate), Digitaria sanguinalis [3] | activity level (fresh weight growth control rate), Amaranthus retroflexus [4] | activity level (fresh weight growth control rate), Setaria viridis [5] | activity level (fresh weight growth control rate), Veronica polita [6]

CCOC(=O)C1(C)ON=C(c2cc(-c3ccc(C(F)(F)F)cn3)c(F)cc2Cl)O1 (stereo not drawn) [Compound 29]
10: activity level (fresh weight growth control rate), Echinochloa crus-galli [1] | activity level (fresh weight growth control rate), Abutilon theophrasti [2] | activity level (fresh weight growth control rate), Digitaria sanguinalis [3] | activity level (fresh weight growth control rate), Amaranthus retroflexus [4] | activity level (fresh weight growth control rate), Setaria viridis [5] | activity level (fresh weight growth control rate), Veronica polita [6]

CCOC(=O)C1ON=C(c2cc(-c3ncc(C(F)(F)F)cc3Cl)c(F)cc2Cl)O1 (stereo not drawn) [Compound 26]
10: activity level (fresh weight growth control rate), Echinochloa crus-galli [1] | activity level (fresh weight growth control rate), Abutilon theophrasti [2] | activity level (fresh weight growth control rate), Digitaria sanguinalis [3] | activity level (fresh weight growth control rate), Amaranthus retroflexus [4] | activity level (fresh weight growth control rate), Setaria viridis [5] | activity level (fresh weight growth control rate), Veronica polita [6]

C#CCOC(=O)C1(C)ON=C(c2cc(-c3ncc(C(F)(F)F)cc3Cl)c(F)cc2Cl)O1 (stereo not drawn) [Compound 97]
10: activity level (fresh weight growth control rate), Echinochloa crus-galli [1] | activity level (fresh weight growth control rate), Abutilon theophrasti [2] | activity level (fresh weight growth control rate), Digitaria sanguinalis [3] | activity level (fresh weight growth control rate), Amaranthus retroflexus [4] | activity level (fresh weight growth control rate), Setaria viridis [5] | activity level (fresh weight growth control rate), Veronica polita [6]

COC(=O)C1(C)ON=C(c2cc(-c3ncc(F)cc3F)c(F)cc2Cl)O1 (stereo not drawn) [Compound 7]
10: activity level (fresh weight growth control rate), Echinochloa crus-galli [1] | activity level (fresh weight growth control rate), Abutilon theophrasti [2] | activity level (fresh weight growth control rate), Digitaria sanguinalis [3] | activity level (fresh weight growth control rate), Amaranthus retroflexus [4] | activity level (fresh weight growth control rate), Setaria viridis [5] | activity level (fresh weight growth control rate), Veronica polita [6]

CCOC(=O)C1(C(F)(F)F)ON=C(c2cc(-c3ncc(C(F)(F)F)cc3Cl)c(F)cc2Cl)O1 (stereo not drawn) [Compound 62]
10: activity level (fresh weight growth control rate), Echinochloa crus-galli [1] | activity level (fresh weight growth control rate), Abutilon theophrasti [2] | activity level (fresh weight growth control rate), Digitaria sanguinalis [3] | activity level (fresh weight growth control rate), Amaranthus retroflexus [4] | activity level (fresh weight growth control rate), Setaria viridis [5] | activity level (fresh weight growth control rate), Veronica polita [6]

CC1(C(=O)OCCF)ON=C(c2cc(-c3ncc(C(F)(F)F)cc3Cl)c(F)cc2Cl)O1 (stereo not drawn) [Compound 99]
10: activity level (fresh weight growth control rate), Echinochloa crus-galli [1] | activity level (fresh weight growth control rate), Abutilon theophrasti [2] | activity level (fresh weight growth control rate), Digitaria sanguinalis [3] | activity level (fresh weight growth control rate), Amaranthus retroflexus [4] | activity level (fresh weight growth control rate), Setaria viridis [5] | activity level (fresh weight growth control rate), Veronica polita [6]

CCOC(=O)C1(C)ON=C(c2cc(-c3ncc(C(F)(F)F)cc3C)c(F)cc2Cl)O1 (stereo not drawn) [Compound 30]
10: activity level (fresh weight growth control rate), Echinochloa crus-galli [1] | activity level (fresh weight growth control rate), Abutilon theophrasti [2] | activity level (fresh weight growth control rate), Digitaria sanguinalis [3] | activity level (fresh weight growth control rate), Amaranthus retroflexus [4] | activity level (fresh weight growth control rate), Setaria viridis [5] | activity level (fresh weight growth control rate), Veronica polita [6]

CCSC(=O)C1(C)ON=C(c2cc(-c3ncc(C(F)(F)F)cc3Cl)c(F)cc2Cl)O1 (stereo not drawn) [Compound 85]
10: activity level (fresh weight growth control rate), Echinochloa crus-galli [1] | activity level (fresh weight growth control rate), Abutilon theophrasti [2] | activity level (fresh weight growth control rate), Digitaria sanguinalis [3] | activity level (fresh weight growth control rate), Amaranthus retroflexus [4] | activity level (fresh weight growth control rate), Setaria viridis [5] | activity level (fresh weight growth control rate), Veronica polita [6]

COC(=O)C1(C)ON=C(c2cc(-c3ncc(Cl)cc3Cl)c(F)cc2Cl)O1 (stereo not drawn) [Compound 11]
10: activity level (fresh weight growth control rate), Echinochloa crus-galli [1] | activity level (fresh weight growth control rate), Abutilon theophrasti [2] | activity level (fresh weight growth control rate), Digitaria sanguinalis [3] | activity level (fresh weight growth control rate), Amaranthus retroflexus [4] | activity level (fresh weight growth control rate), Setaria viridis [5] | activity level (fresh weight growth control rate), Veronica polita [6]

C=CCCCOC(=O)C1(C)ON=C(c2cc(-c3ncc(C(F)(F)F)cc3Cl)c(F)cc2Cl)O1 (stereo not drawn) [Compound 106]
10: activity level (fresh weight growth control rate), Echinochloa crus-galli [1] | activity level (fresh weight growth control rate), Abutilon theophrasti [2] | activity level (fresh weight growth control rate), Digitaria sanguinalis [3] | activity level (fresh weight growth control rate), Amaranthus retroflexus [4] | activity level (fresh weight growth control rate), Setaria viridis [5] | activity level (fresh weight growth control rate), Veronica polita [6]

CCOC(=O)C1ON=C(c2cc(-c3ccc(C(F)(F)F)cn3)c(F)cc2Cl)O1 (stereo not drawn) [Compound 23]
10: activity level (fresh weight growth control rate), Echinochloa crus-galli [1] | activity level (fresh weight growth control rate), Abutilon theophrasti [2] | activity level (fresh weight growth control rate), Digitaria sanguinalis [3] | activity level (fresh weight growth control rate), Amaranthus retroflexus [4] | activity level (fresh weight growth control rate), Setaria viridis [5] | activity level (fresh weight growth control rate), Veronica polita [6]

COCCOC(=O)C1(C)ON=C(c2cc(-c3ncc(C(F)(F)F)cc3Cl)c(F)cc2Cl)O1 (stereo not drawn) [Compound 110]
10: activity level (fresh weight growth control rate), Echinochloa crus-galli [1] | activity level (fresh weight growth control rate), Abutilon theophrasti [2] | activity level (fresh weight growth control rate), Digitaria sanguinalis [3] | activity level (fresh weight growth control rate), Amaranthus retroflexus [4] | activity level (fresh weight growth control rate), Setaria viridis [5] | activity level (fresh weight growth control rate), Veronica polita [6]
